# Target: T1, Mtb GlgE (Mycobacterium tuberculosis, UniProt P9WQ17)
# T1 construct: full-length wild type, N-terminal His tag (modified pET-28), E. coli T7 Rosetta; homodimer, intermolecular C29 disulfide in crystal
# Assay: X-ray crystal structure, […] Å, crystal soak
# Type: binding
# Conditions: 10 mM ligand, 1 h soak of maltose co-crystal; acceptor glucan site about 26 Å from M1P site; ternary complex with maltose
# T1 sequence (P9WQ17 1-700): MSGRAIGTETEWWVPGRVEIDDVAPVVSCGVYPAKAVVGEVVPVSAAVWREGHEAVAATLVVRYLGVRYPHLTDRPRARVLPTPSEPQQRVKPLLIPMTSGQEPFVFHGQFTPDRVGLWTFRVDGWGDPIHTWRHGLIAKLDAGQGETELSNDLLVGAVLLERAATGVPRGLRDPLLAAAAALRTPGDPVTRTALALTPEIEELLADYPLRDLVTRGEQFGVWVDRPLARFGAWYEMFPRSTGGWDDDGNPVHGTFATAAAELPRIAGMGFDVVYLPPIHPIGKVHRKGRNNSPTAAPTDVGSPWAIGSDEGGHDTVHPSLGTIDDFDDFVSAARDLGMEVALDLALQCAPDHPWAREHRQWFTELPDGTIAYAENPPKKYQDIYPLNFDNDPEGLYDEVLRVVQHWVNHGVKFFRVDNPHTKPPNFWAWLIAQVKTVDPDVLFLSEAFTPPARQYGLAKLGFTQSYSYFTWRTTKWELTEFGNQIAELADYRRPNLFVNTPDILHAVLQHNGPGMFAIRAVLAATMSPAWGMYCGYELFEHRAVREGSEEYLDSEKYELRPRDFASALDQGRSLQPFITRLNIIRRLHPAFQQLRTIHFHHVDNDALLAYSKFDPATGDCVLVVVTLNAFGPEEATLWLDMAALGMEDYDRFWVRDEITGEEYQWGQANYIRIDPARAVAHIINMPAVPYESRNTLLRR
smiles,measurement,value
"OC[C@H]1O[C@H](O[C@H]2[C@H](O)[C@@H](O)[C@@H](O[C@H]3[C@H](O)[C@@H](O)[C@@H](O[C@H]4[C@H](O)[C@@H](O)[C@@H](O[C@H]5[C@H](O)[C@@H](O)[C@@H](O[C@H]6[C@H](O)[C@@H](O)C(O)O[C@@H]6CO)O[C@@H]5CO)O[C@@H]4CO)O[C@@H]3CO)O[C@@H]2CO)[C@H](O)[C@@H](O)[C@@H]1O (stereo partly shown) [M6, maltohexaose]","X-ray crystal structure, 4.0 Å, crystal soak",ternary complex with Mtb GlgE bound to maltose and maltohexaose (GlgE-M6) was solved
